Measured values taken from PMC12280925, “Structure-based discovery of positive allosteric modulators of the A1 adenosine receptor” (Proceedings of the National Academy of Sciences of the …, 2025).
Positions count from the first letter of the chain named. Where two headings read alike, the source gives them in different places.

Experiments:
[1] = system: A1R-mediated rat atrial beat rate; experiment: Isolated rat atria: NECA-mediated decrease in contractile rate; conditions: approximate, read-out: potency (EC50) for inhibition in rat atrial beat rate
Method: Isolated rat atrial experiments were performed as previously described ([53]). Briefly, 10 to 16 wk old male Sprague Dawley rats were anesthetized with xylazine/ketamine and the chest cavity of the rat was opened to fully expose the heart, which was rapidly removed and placed in Krebs–Henseleit solution. The heart was cut transversely below the right and left atria to remove the ventricles, and the remaining […] were trimmed carefully. Atria was then mounted in an organ bath at 37 °C, bubbled with 5% CO2/95% O2, and allowed to contract spontaneously. The rate of atrial contraction was measured using a force transducer connected to a PowerLab data acquisition system. […] All experiments involving animals were approved by the Monash Institute of Pharmaceutical Sciences Animal Ethics Committee under project number 20213.

[2] = target: T1, A1R (A1R-FlpInCHO cells) (Homo sapiens, UniProt P30542); experiment: Whole-cell [3H]DPCPX competition binding: NECA affinity in absence or presence of compound; conditions: 30 μM compound; for effect on NECA affinity (pKI): [3H]DPCPX competition binding, A1R-FlpINCHO cells; for effect on [3H]DPCPX binding (1 nM): absence of orthosteric agonist
T1 sequence (P30542 1-326): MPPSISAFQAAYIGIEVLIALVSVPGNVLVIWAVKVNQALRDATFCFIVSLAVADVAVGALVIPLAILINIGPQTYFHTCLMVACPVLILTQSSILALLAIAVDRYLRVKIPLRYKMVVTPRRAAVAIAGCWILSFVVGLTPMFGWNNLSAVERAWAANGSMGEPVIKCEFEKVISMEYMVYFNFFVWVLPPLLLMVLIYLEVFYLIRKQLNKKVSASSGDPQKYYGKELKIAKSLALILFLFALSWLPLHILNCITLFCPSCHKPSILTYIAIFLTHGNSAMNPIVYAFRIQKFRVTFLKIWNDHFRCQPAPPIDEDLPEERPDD
Method: [^3H]DPCPX (8-cyclopentyl-1,3-dipropylxanthine, [dipropyl-2,3-^3H(N)]) whole-cell binding assays were performed on FlpINCHO cells stably expressing either WT (nontagged or 3xHA-tagged) or mutant 3xHA-A1R. Cells were seeded into a transparent 96-well plate at 40,000 cells/well in DMEM containing 10% FBS. Following 8 h incubation in a humidified environment at 37 °C in 5% CO2, cells were washed and maintained in serum-free DMEM for approximately 18 h at 37 °C in 5% CO2. […] Assays were terminated by washing twice with 100 μL/well cold phosphate-buffered saline, followed by the addition of 100 μL OptiPhase Supermix™ scintillation cocktail and bound radioactivity measured using a MicroBeta^2 ™ plate counter (PerkinElmer).
[^3H]DPCPX competition binding curves were fitted to a one-site inhibitory mass action equation:[1] Y=Bottom+Top-Bottom/1+10^X-LogIC50,
The top and bottom represent the maximal and minimal binding in the presence of the competitive ligand, respectively. Equilibrium dissociation constant (KI) values were subsequently derived from inhibition binding experiments using the Cheng–Prusoff equation:[2] KI=IC50/1+A/KD.

[3] = target: T1, A1R (A1R-FlpInCHO cells); experiment: Inhibition of forskolin-stimulated cAMP accumulation: NECA potency ± compound and compound alone; assay type: cell-based; conditions: for effect on NECA potency (pEC50): 30 μM compound, inhibition of forskolin-stimulated cAMP accumulation; for allosteric agonism (functional response in the absence of NECA): 30 μM compound alone, 3 μM forskolin-stimulated cAMP accumulation
Method: (§1) FlpInCHO cell lines and cortical neuron cells were seeded into transparent 96-well plates at 20,000 cells/well and incubated for 16 to 20 h in a humidified incubator at 37 °C in 5% CO2. […] Compounds were added at either a single concentration (10 or 30 μM) or a concentration range for full interaction studies (3 to 30 μM), and plates were incubated for 30 to 60 min at 37 °C in a humidified chamber. […] After 30 min incubation at 37 °C, the reaction was terminated by rapid removal of buffer and the addition of 50 μL/well cold ethanol. […] Agonist concentration–response curves were normalized to the response mediated by 3 µM forskolin […].
Response=Basal+Emax-Basal×A/EC50+A,

[4] = target: T1, A1R (A1R-FlpInCHO cells); experiment: NECA/allosteric ligand interaction in cAMP accumulation, operational model of allosterism; assay type: cell-based; conditions: for allosteric ligand efficacy (logτB): allosteric agonism in cAMP; for functional cooperativity with NECA (logαβ): cAMP
Method: as §1
[5] E=EmτAAKB+αβ[B]+τB[B]KA^n/AKB+KAKB+[B]KA+α[A][B]^n+τAAKB+αβ[B]+τB[B]KA^n
Orthosteric agonist and allosteric ligand affinity were constrained to values determined from radioligand binding.

[5] = target: T2, A1R allosteric site (A1R-FlpINCHO cells, wild type) (Homo sapiens, UniProt P30542); experiment: Whole-cell [3H]DPCPX interaction binding with NECA, allosteric ternary complex model; conditions: for binding cooperativity with NECA (logα): orthosteric agonist NECA
T2 sequence (P30542 1-326): T1 sequence (P30542 1-326)
Text: Equilibrium binding interaction experiments were fitted to the following allosteric ternary complex model.[3] Y=BmaxA/A+KAKB/αAB+KB1+[I]/KI+[B]/KB+αII[B]/KIKB,
A cooperativity factor α > 1 describes positive cooperativity; a value 0 < α < 1 describes negative cooperativity, and a value of α = 1 describes neutral cooperativity.

[6] = target: T3, A2BR (Homo sapiens, UniProt P29275); experiment: cAMP accumulation in A2BR FlpINCHO cells (selectivity); assay type: cell-based
T3 construct: expressed in transfected cells; host or cells: FlpInCHO cells, stably transfected
T3 sequence (P29275 1-332): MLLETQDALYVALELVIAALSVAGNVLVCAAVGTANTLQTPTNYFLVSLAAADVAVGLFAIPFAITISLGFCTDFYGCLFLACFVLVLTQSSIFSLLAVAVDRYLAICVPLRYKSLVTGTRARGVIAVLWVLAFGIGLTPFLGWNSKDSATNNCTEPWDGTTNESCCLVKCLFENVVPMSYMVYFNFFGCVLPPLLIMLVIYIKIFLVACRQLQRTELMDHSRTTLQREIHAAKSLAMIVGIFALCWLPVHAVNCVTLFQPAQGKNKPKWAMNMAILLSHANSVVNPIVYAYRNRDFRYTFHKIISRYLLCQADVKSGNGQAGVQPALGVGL

[7] = target: T4, A3R (Homo sapiens, UniProt P0DMS8); experiment: cAMP accumulation in A3R FlpINCHO cells (selectivity); assay type: cell-based
T4 construct: expressed in transfected cells; host or cells: FlpInCHO cells, stably transfected
T4 sequence (P0DMS8 1-318): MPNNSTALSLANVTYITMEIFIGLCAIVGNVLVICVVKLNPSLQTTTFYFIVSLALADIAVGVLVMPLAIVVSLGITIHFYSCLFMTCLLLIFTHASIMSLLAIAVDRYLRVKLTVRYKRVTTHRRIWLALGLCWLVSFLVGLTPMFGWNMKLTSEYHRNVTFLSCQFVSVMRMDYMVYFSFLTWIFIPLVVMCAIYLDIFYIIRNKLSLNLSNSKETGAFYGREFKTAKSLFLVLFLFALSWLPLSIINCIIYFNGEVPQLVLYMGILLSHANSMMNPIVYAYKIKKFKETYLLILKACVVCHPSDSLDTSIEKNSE

[8] = target: T5, A1R G279^7.44A mutant (Homo sapiens, UniProt P30542, G279A); experiment: [3H]DPCPX interaction binding at mutant G279A-A1R-FlpINCHO
T5 construct: expressed in transfected cells; host or cells: FlpInCHO cells, stably transfected
T5 sequence (P30542 1-326 G279A): T1 sequence (P30542 1-326) with G279A

[9] = target: T6, M2 receptor (M2R) (Homo sapiens, UniProt P08172); experiment: cAMP accumulation in M2 receptor FlpINCHO cells (selectivity); assay type: cell-based; conditions: acetylcholine as agonist
T6 sequence (P08172 1-466): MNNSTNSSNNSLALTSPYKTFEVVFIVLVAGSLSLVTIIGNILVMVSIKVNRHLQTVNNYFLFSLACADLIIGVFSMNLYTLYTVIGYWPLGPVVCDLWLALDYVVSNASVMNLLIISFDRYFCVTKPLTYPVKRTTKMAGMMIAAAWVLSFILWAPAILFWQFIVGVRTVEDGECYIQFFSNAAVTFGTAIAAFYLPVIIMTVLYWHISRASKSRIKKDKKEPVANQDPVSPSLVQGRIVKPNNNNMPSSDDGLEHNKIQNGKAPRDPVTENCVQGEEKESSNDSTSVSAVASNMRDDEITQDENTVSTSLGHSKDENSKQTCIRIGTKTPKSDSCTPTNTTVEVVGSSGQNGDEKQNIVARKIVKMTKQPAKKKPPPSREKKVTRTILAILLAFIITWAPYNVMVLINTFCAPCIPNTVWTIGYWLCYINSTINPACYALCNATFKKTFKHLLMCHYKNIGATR

[10] = target: T7, A2AR (Homo sapiens, UniProt P29274); experiment: cAMP accumulation in A2AR FlpINCHO cells (selectivity); assay type: cell-based
T7 construct: expressed in transfected cells; host or cells: FlpInCHO cells, stably transfected

[11] = target: T8, A1R S246^6.47A mutant (Homo sapiens, UniProt P30542, S246A); experiment: [3H]DPCPX interaction binding at mutant S246A-A1R-FlpINCHO
T8 construct: expressed in transfected cells; host or cells: FlpInCHO cells, stably transfected
T8 sequence (P30542 1-326 S246A): T1 sequence (P30542 1-326) with S246A

[12] = system: nontransfected FlpINCHO cells; experiment: cAMP accumulation in nontransfected FlpINCHO cells; assay type: cell-based, Chinese hamster; conditions: 10 µM compound
[13] = allosteric ternary complex model

T7 sequence (P29274 whole entry): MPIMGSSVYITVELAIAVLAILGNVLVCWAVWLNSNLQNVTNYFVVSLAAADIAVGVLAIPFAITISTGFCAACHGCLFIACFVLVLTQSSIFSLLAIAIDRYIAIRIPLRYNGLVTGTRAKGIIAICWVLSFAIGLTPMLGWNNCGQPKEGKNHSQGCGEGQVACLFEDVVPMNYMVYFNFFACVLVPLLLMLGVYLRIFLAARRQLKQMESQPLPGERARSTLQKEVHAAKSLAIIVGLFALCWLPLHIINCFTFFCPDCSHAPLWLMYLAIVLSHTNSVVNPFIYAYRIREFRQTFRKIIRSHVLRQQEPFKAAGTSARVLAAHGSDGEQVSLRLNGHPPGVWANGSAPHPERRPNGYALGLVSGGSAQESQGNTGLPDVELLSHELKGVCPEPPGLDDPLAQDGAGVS

How did the EC50 [1] turn out when `CCNC(=O)[C@H]1O[C@@H](n2cnc3c(N)ncnc32)[C@H](O)[C@@H]1O` [NECA, 5′-N-ethylcarboxamidoadenosine] was run?
The EC50 was about 0.13 µM.

Which “effect on NECA affinity (pKI)” value [2] does the source give for `CCCc1sc(N)nc1-c1ccc(C)cc1C` [compound 2] here?
Its value is “significantly enhanced”.

And the “effect on NECA potency (pEC50)” value ([3]; A1R-FlpINCHO cells)?
Its value is “significantly enhanced”.

How did the “effect on NECA affinity (pKI)” value [2] turn out when `Nc1nc(-c2cccc3ccccc23)cs1` [compound 12] was run?
The value was “significantly enhanced”.

What about the “effect on [3H]DPCPX binding (1 nM)” value [2] of the same compound?
The value was “modest but significant decrease”.

And the “allosteric agonism (functional response in the absence of NECA)” value [3]?
Its value is “no significant effect”.

What about the “effect on NECA potency (pEC50)” value ([3]; A1R-FlpINCHO cells) of the same compound?
Its value is “significantly enhanced”.

What about the “allosteric ligand efficacy (logτB)” value [4] of the same compound?
The value was −0.65 ± 0.12.

And the “functional cooperativity with NECA (logαβ)” value [4]?
Its value is 0.68 ± 0.10.

And the Kb ([5]; allosteric ternary complex model, n = 4, read-out: allosteric ligand affinity (pKB) (converted))?
Its Kb is 23.4 µM.

And the “binding cooperativity with NECA (logα)” value [5, 13]?
Its value is 0.99 ± 0.25.

What about the “positive cooperativity between PAM and NECA” value ([5]; approximate, from logα) of the same compound?
Its value is about 10 fold.

And the Kd ([5]; approximate, from pKB, read-out: affinity for the A1R allosteric site)?
The Kd was about 25 µM.

Which “effect on NECA affinity (pKI)” value [2] does the source give for `Cc1ccc(C(=O)c2c(N)sc(C)c2C)cc1` [compound 20] here?
Its value is “significantly enhanced”.

And the “effect on [3H]DPCPX binding (1 nM)” value [2]?
The value was “modest but significant decrease”.

And the “allosteric agonism (functional response in the absence of NECA)” value [3]?
Its value is “no significant effect”.

And the “effect on NECA potency (pEC50)” value ([3]; A1R-FlpINCHO cells)?
Its value is “significantly enhanced”.

Which “effect on NECA affinity (pKI)” value [2] does the source give for `Nc1ccc(Cl)cc1C(=O)c1ccc(F)cc1` [compound 22] here?
Its value is “significantly enhanced”.

How did the “effect on NECA potency” value ([6]; 10 µM compound, A2BR) turn out when `CCCc1sc(N)nc1-c1ccc(C)c2ccccc12` [compound 54] was run?
Its value is “no significant effect”.

What about the “agonism (compound alone)” value ([6]; 30 μM, A2BR FlpINCHO cells) of the same compound?
Its value is “no appreciable activity”.

And the “effect on NECA potency” value ([7]; 10 µM compound, A3R)?
The value was “no significant effect”.

And the “agonism (compound alone)” value ([7]; 30 μM, A3R FlpINCHO cells)?
The value was “no appreciable activity”.

What about the “effect of G279^7.44A on affinity” value [8] of the same compound?
Its value is “did not influence”.

And the “effect of G279^7.44A on allosteric cooperativity with the orthosteric agonist” value [8]?
Its value is “significantly decreased”.

And the Kb ([8]; […], Table S2)?
The Kb was 2.14 µM.

And the “binding cooperativity (logα) with NECA” value ([8]; […], Table S2)?
Its value is -0.05.

What about the “effect in FlpINCHO cells expressing the M2 receptor” value [9] of the same compound?
The value was “no significant effect”.

And the “agonism (compound alone)” value ([3]; A1R-FlpINCHO cells)?
Its value is “modest functional response”.

What about the “allosteric ligand efficacy (logτB)” value [4] of the same compound?
The value was −0.37 ± 0.10.

And the “functional cooperativity with NECA (logαβ)” value [4]?
The value was 0.84 ± 015.

And the “binding cooperativity (logα) with NECA” value ([5]; WT A1R, Table S2)?
Its value is 0.92.

And the Kb ([5]; allosteric ligand affinity (pKB), allosteric ternary complex model, n = 4)?
Its Kb is 7.08 µM.

What about the “binding cooperativity with NECA (logα)” value [5, 13] of the same compound?
The value was 1.15 ± 0.10.

And the Kb ([5]; pKB, WT A1R, mean ± SEM (n), Table S2)?
The Kb was 5.62 µM.

And the “effect on NECA potency” value ([10]; 10 µM compound, A2AR)?
The value was “no significant effect”.

And the “agonism (compound alone)” value ([10]; 30 μM, A2AR FlpINCHO cells)?
The value was “no appreciable activity”.

What about the “effect of S246^6.47A on affinity or cooperativity” value [11] of the same compound?
The value was “did not significantly decrease”.

And the Kb ([11]; […], Table S2)?
Its Kb is 5.13 µM.

What about the “binding cooperativity (logα) with NECA” value ([11]; […], Table S2) of the same compound?
Its value is 1.10.

And the “effect in nontransfected FlpINCHO cells” value [12]?
The value was “no significant effect”.
